# Calls of active or inactive are those of the source. The calls are words filed in the database; no cut-off is given here.
# How the values were obtained:
# [1] = biological target: T1, Oxysterols receptor LXR-alpha (Mus musculus) (UniProt Q9Z0Y9); assay: Agonist activity at mouse LXRalpha expressed in HEK293 cells co-expressing CMX-beta-galactosidase at 30 uM incubated for 16 hrs by luciferase reporter gene assay; format: cell-based
# T1 sequence (whole entry): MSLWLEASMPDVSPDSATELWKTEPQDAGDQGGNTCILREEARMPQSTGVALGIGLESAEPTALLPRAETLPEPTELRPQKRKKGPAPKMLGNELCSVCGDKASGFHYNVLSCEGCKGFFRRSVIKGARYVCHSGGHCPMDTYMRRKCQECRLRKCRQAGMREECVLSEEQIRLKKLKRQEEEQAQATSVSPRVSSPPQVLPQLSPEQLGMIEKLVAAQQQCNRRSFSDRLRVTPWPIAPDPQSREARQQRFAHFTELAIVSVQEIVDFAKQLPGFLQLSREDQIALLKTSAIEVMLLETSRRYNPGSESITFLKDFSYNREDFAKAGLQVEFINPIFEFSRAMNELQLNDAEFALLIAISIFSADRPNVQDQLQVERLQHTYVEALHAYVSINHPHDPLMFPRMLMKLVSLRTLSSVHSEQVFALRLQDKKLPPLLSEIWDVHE
# [2] = biological target: Oxysterols receptor LXR-beta (Homo sapiens, UniProt P55055); assay: Agonist activity at LXRbeta ligand-binding domain (unknown origin) at 3 uM incubated for 1.5 hrs using fluorescein-labeled coactivator peptide by TR-FRET competitive binding assay relative to T0901317
structure (smiles),measurement,setting,value
O=C1c2c(Cl)c(Cl)c(Cl)c(Cl)c2C(=O)N1c1ccccc1/C=C/c1cccs1,Activity,[1],inactive
same,Efficacy,[2],14%
